Laboratory results taken from patent US20250188387A1, “LOW TOXICITY SURFACTANT BOOSTER COMPOSITIONS FOR FILTRATION MEMBRANE CLEANING APPLICATIONS” (ECOLAB USA INC., priority 2023, published 2025).

Key:
[1] = Toxicity screening of surfactants by derived no-effect level (DNEL); details: derived from toxicological studies supplied by the surfactant manufacturer, with assessment factors
Source text: As referred to herein, a DNEL is substance specific and is commonly used as a health risk-based threshold in toxicological risk assessments. As a point of departure for the derivation of a DNEL varying toxicological studies are used, supplied by the surfactant manufacturer. […] Depending on evaluated endpoint and different parameters of these studies certain assessment factors are applied to derivate the DNEL. Used herein are scientifically justified and publicly recognized methods (e.g. by EFSA or ECETOC) for the determination of these assessment factors.
Surfactants were screened for lower toxicity levels.

[2] = Redeposition of ghee onto coupons; details: pH 11, 50° C., 1 g ghee in 600 g water, 10 minutes, FIG. 5
Method: Each coupon was new and conditioned by soaking in methyl alcohol for 30 seconds, then placed in 60° C. oven for 30 minutes. 600 g of 0 grain water was heated in a 1000 ml beaker to 50° C. The pH of the mixture was adjusted to 11 using NaOH. The chemistry was added to the solution and mixed for one minute. Additionally, 1 g of melted ghee was added to the solution and mixed for one minute. Three cleaned and weighed coupons were added using a coupon holder. After 10 minutes, the coupons were removed and dipped in DI water once. Coupons were left to dry overnight and weighed the following day. […] Therefore, after the soil is removed it is less likely to be redeposited onto the surface again.

Nonylphenol ethoxylate [NPE]
DNEL (derived no-effect level) [1]: less than 1

Alkyl polyglucosides [APGs]
redeposition of butterfat onto coupons [2]: helps prevent a larger amount of butterfat from being deposited
